Measured values taken from US20040121968A1, “Antiangiogenesis by inhibiting protein kinase CK2 activity” (priority 2002, published 2004).

Legend:
[1] = tested on: retinal endothelial cells (REC); experiment: REC proliferation assay (MTS cell number); assay type: cell-based, bovine; conditions: for inhibition of REC proliferation: basal and growth factor-stimulated (quercetin 50 μM, emodin, DRB 20-25 μM), H-7: preliminary, not shown
Procedure: REC proliferation and survival assays. 96-well plates were coated with various amounts of TN-C or vehicle. […] Cell numbers were determined on days 4-7 using the MTS cell proliferation assay (Promega Corp.) according to manufacturer's instructions. Survival was measured in the same way using high glucose (30 mM) or chemical hypoxia (2 mM sodium azide) or serum-free medium to induce cell death. Cell numbers were determined on days 4-7 using MTS assay (Promega).

[2] = tested on: retinal endothelial cells (REC); experiment: REC survival assay (low serum, MTS cell number); assay type: cell-based, bovine
Procedure: REC proliferation and survival assays. 96-well plates were coated with various amounts of TN-C or vehicle. 5×10^3 cells were added to each triplicate well in low-serum REC medium with various amounts of growth factors (0.5% FCS incomplete BREC medium containing 10 ng/ml of human IGF-I, FGF-2, VEGF, PlGF and PDGF-BB [R&D Systems Inc., Minneapolis, Minn.]). Cell numbers were determined on days 4-7 using the MTS cell proliferation assay (Promega Corp.) according to manufacturer's instructions. Survival was measured in the same way using high glucose (30 mM) or chemical hypoxia (2 mM sodium azide) or serum-free medium to induce cell death. Cell numbers were determined on days 4-7 using MTS assay (Promega).

[3] = tested on: retinal endothelial cells (REC); experiment: Secondary sprouting assay on Matrigel; assay type: cell-based, bovine; conditions: for inhibition of REC secondary sprouting: basal and growth factor-stimulated (quercetin 50 μM, emodin, DRB 20-25 μM), H-7: preliminary, not shown
Procedure: (§1) In vitro Matrigel™ assay of capillary-like tube formation and secondary sprouting. […] Briefly, 50 μL of reconstituted basement membrane matrix from mouse EHS tumor (BD or GFR Matrigel™; Becton Dickinson Labware, Bedford, Mass.) were dispensed with frozen pipettes into each well of a previously frozen, sterile 96-well plate sitting on wet ice and allowed to solidify for 1 hr at room temperature or 37° C. Approximately 5×10^4 or 7.5×10^4 REC in a 100 μL volume were seeded into each triplicate well. Human recombinant or purified growth factors were added to a final concentration of 10 ng/mL (or as noted) in 0.5% FCS incomplete BREC medium. Capillary-like tube structures formed by REC on reconstituted basement membrane matrix were photographed at various intervals ranging from 12-72 hr; pictures were scanned, digitized and analyzed using image-processing software. For the secondary sprouting assay, cells on reconstituted basement membrane matrix (BD Matrigel™) were seeded as above but incubated in 0.5% FCS incomplete BREC medium without any growth factors for 3 days, allowing for tube formation and collapse. On day 3, human recombinant or purified growth factors were added to a final concentration of 10 ng/mL (or as noted) in low-serum incomplete BREC medium and incubated for another 5-6 days. Digital photographs were obtained with a Kodak MDS 100 camera attached to a Leitz DM IL inverted microscope. Digitized images obtained with a Kodak MDS 100 video camera were stored on compact discs and quantified with NIH Image 1.62 software. The number of living cells in the sprouting colonies were determined using the MTS cell proliferation assay.
(§2) The cells form tubes on Matrigel™ by 16 hr, and by 48 hr, without TN-C or growth factors, the tubes collapse. Secondary sprouting with Matrigel™ invasion starts by day four in culture. Cultures were monitored microscopically. Culture medium with or without growth factors or inhibitors was changed every two-three days.

[4] = tested on: retinal endothelial cells (REC); experiment: Migration (wound healing) assay; assay type: cell-based, bovine; conditions: for inhibition of REC migration: basal and growth factor-stimulated (quercetin 50 μM, emodin, DRB 20-25 μM), H-7: preliminary, not shown; for effect on growth factor-mediated cell migration: bovine REC, four GFs (IGF-1+FGF-2+VEGF+PlGF) 10 ng/ml each, 7 days, 0.5% serum, emodin 10 μM, DRB 15 μM
Procedure: Migration assay. REC migration rates were examined in a wound healing assay, where cells migrate over time into the scrape wound in a monolayer. Briefly, cells were seeded in 24-well plates and allowed to reach confluence in growth medium. Prior to growth factor treatment, cells were serum-starved overnight in incomplete BREC medium with 0.5% FCS. All monolayers within an experiment were wounded with a single sterile wood stick of constant diameter, to ensure uniformity in the wound areas among different treatments. Wounded monolayers were then rinsed with low-serum medium to remove detached cells and treated with various combinations of human growth factors at 10 ng/mL each. On day 7, cells were rinsed 3× with PBS and fixed with methanol for 15 min, rehydrated with dH2O and stained with Meyer's hematoxylin for 5 min, followed by destaining with dH2O. All wells were photographed with a 4× or 10× objective using a Kodak MDS 100 digital camera attached to a Leitz DM IL inverted microscope. The original wound area was measured at 0 hr and used as a baseline for comparison to the treated wells at the conclusion of the experiment. The number of cells migrated into the wound was determined. Migrating cell counting was automated using the AAB (Advanced American Biotechnology, Fullerton, Calif.) software. Data were calculated and statistically analyzed (Spirin K S et al., Basement membrane and growth factor gene expression in normal and diabetic human retinas, Curr. Eye Res. 18:490-499 [1999]) relative to control cultures that received the same concentrations of bovine serum albumin instead of growth factors and/or inhibitor, compared to vehicle instead of inhibitor after wounding. Inhibitors were added 30 min before growth factors.

[5] = tested on: retinal endothelial cells (REC); experiment: Matrigel assay of capillary-like tube formation; assay type: cell-based, bovine; conditions: for inhibition of REC tube formation: basal and growth factor-stimulated (quercetin 50 μM, emodin, DRB 20-25 μM)
Procedure: as §1, §2

[6] = tested on: oxygen-induced retinopathy in newborn mice; experiment: Oxygen-induced retinopathy in newborn mice (retinal neovascularization); assay type: in vivo, mouse; conditions: for retinal neovascularization diminished by: two intraperitoneal injections daily, day 11-17 after birth, emodin 20-30 μg/g, vs untreated or vehicle-treated
[7] = Solubility in water / vehicle; assay type: physicochemical
[8] = tested on: normal REC and DR REC gene expression; experiment: Gene array analysis of growth factor action on normal and DR REC; assay type: cell-based, human; conditions: 10 ng/mL growth factor, seven days, 0.5% serum
Procedure: Normal REC and DR REC gene expression patterns were compared by gene array analysis. Normal, diabetic and DR autopsy human eyes are obtained from National Disease Research Interchange (NDRI), within 24 hours after death. These eyes are used to isolate REC for culture as described hereinabove. Cultures can be used up to the fourth passage, and viable cultures can be cryogenically stored. Cultures of normal, diabetic and DR REC are established from autopsy human eyes and routinely checked for purity using von Willebrand factor immunostaining as described hereinabove. Cells are cultured in 50% F-12, 50% low-glucose DMEM with antibiotics/antimycotics (GIBCO/BRL), insulin-transferrin-selenite, ECGS (Sigma Chemical Co.), and 20% FCS. Statistical analysis of results is done with GraphPad Prism software (GraphPad Software).
In experiments, normal, diabetic, and DR REC were grown for seven days with or without 10 ng/ml VEGF, or 10 ng/mL IGF-I, or 10 ng/mL each VEGF and IGF-I, in medium with 0.5% serum. Long-term rather than short-term treatment was chosen because diabetes develops over a considerable time period. RNA isolated from REC was reverse-transcribed using Smart™ cDNA synthesis method (Clontech), to produce full-length cDNA. Two normal cases or two DR cases were pooled together. This cDNA was PCR-amplified with a short number of cycles and used as a probe for Clontech Atlas Human 1.2 1,200-gene arrays, according to the manufacturer's instructions. This technique had previously been refined and verified by Northern analysis and fully correlated gene array data with protein expression. (Spirin K S et al., Analysis of gene expression in human bullous keratopathy corneas containing limiting amounts of RNA, Invest. Ophthalmol. Vis. Sci. 40:3108-3115 [1999]). Samples were normalized to several housekeeping genes and the analysis was done with available AtlasImage 2.0 software (Clontech). Signal ratio>2 between samples was considered significant as per manufacturer's recommendation.

[9] = emodin-treated vs vehicle control
[10] = growth factors at 10 ng/ml each

Molecule: OC[C@H]1O[C@@H](n2cnc3cc(Cl)c(Cl)cc32)[C@H](O)[C@@H]1O [DRB, 5,6-dichloro-1-β-D-ribofuranosylbenzimidazole]
- inhibition of REC proliferation [1]: potently inhibited
- effect on number of live cells (proliferation) ([1]; bovine REC, 10% serum, various concentrations, day 6, MTS): significantly lowers cell number
- effect on number of live cells (survival) ([2]; bovine REC, 0.5% serum, various concentrations, day 6, MTS): significantly lowers cell number
- inhibition of REC secondary sprouting [3]: potently inhibited
- concentration from which cell number in secondary sprouting is significantly decreased ([3]; bovine REC on Matrigel, 0.5% serum, day 9, MTS): ≥ 25 µM
- inhibition of REC migration [4]: potently inhibited
- effect on growth factor-mediated cell migration [4]: significant inhibitory effect
- inhibition of REC tube formation [5]: potently inhibited
- retinal neovascularization diminished by [6]: about 60%
- solubility in water [7]: not easily dissolved in water

Molecule: CC1CNCCN1S(=O)(=O)c1cccc2cnccc12 (stereo not drawn) [H-7]
- inhibition of REC proliferation [1]: inhibited
- inhibition of REC secondary sprouting [3]: inhibited
- inhibition of REC migration [4]: inhibited
- effect on REC tubes on Matrigel ([5]; preliminary results, not shown): stabilized

Molecule: Cc1cc(O)c2c(c1)C(=O)c1cc(O)cc(O)c1C2=O [emodin, 3-methyl-1,6,8-trihydroxyanthraquinone]
- inhibition of REC proliferation [1]: potently inhibited
- inhibition of REC secondary sprouting [3]: potently inhibited
- inhibition of REC migration [4]: potently inhibited
- effect on growth factor-mediated cell migration [4]: significant inhibitory effect
- inhibition of REC tube formation [5]: potently inhibited
- neovascular tufts in fluorescein angiograms [6, 9]: much less pronounced
- retinal vascularization in fluorescein angiograms [6, 9]: significantly less vascularization
- retinal neovascularization diminished by [6]: 70-75%
- solubility in water [7]: not easily dissolved in water
- solubility in vehicle ([7]; phosphate-buffered saline with 20% PEG 400 + 2% Tween-80, pH 7.2): did not ensure emodin solubility

Molecule: O=c1c(O)c(-c2ccc(O)c(O)c2)oc2cc(O)cc(O)c12 [quercetin]
- inhibition of REC proliferation [1]: potently inhibited
- inhibition of REC secondary sprouting [3]: potently inhibited
- inhibition of REC migration [4]: potently inhibited
- inhibition of REC tube formation [5]: potently inhibited
- effect on retinal neovascularization ([6]; intramuscular injections, data not shown): substantial effect

Molecule: FGF-2: fibroblast growth factor (FGF)-2
- growth factor effect on secondary sprouting (in words) ([3]; 10 ng/mL growth factor): greatly enhanced
- stimulation of secondary sprouting (fold) ([3]; growth factors, on average): four-fold

Molecule: IGF-I: insulin-like growth factor (IGF)-I
- expression of pro-apoptotic genes [8]: decrease

Molecule: VEGF
- growth factor effect on REC survival [2, 10]: little effect
- growth factor effect on REC migration [4, 10]: significantly enhanced
- expression of pro-apoptotic genes [8]: did not display an increase
- expression of proliferation-related genes [8]: upregulated
